Assay results published in patent publication US20210268030A1, “FIBROADIPOGENIC PROGENITOR-DERIVED EXOSOMES FOR REGENERATION OF DYSTROPHIC MUSCLES” (EXOFIX S.R.L., priority 2018, published 2021).

Experiments:
[1] = system: miRs within FAP-derived exosomes; experiment: Taqman-based miR expression microarray of FAP-derived exosomes; format: in vivo; conditions: mdx mice treated for 15 days with TSA vs control vehicle
Description: Total exosomal RNA was extracted with Total Exosome RNA Protein Isolation Kit (#4478545, Thermo Fisher Scientific). TaqMan MicroRNA Assays were performed according to the manufacturer's recommended protocols (Applied Biosystems) The threshold cycle (Ct) were defined as the fractional cycle number at which the fluorescence passes the fixed threshold. U6 snRNA served as an endogenous control for normalization.
In particular, total exosomal-RNA was retro-transcribed using TaqMan MicroRNA Reverse Transcription Kit (#4366596, ThermoFisher Scientific)
For greater sensitivity, the cDNA was pre-amplified using Taqman PREAMP master mix (#4391128, ThermoFisher Scientific) and Megaplex PreAMP Primers and then amplified using high multiplexed Megaplex Primer Pool (#4444766, ThermoFisher Scientific) and the TaqMan 2× Universal Master Mix II (#4440040, ThermoFisher Scientific) on TaqMan rodent MicroRNA A/B cards Array version 3.0 (#4444909, ThermoFisher Scientific).
We then determined the identity of the miRs within FAP-derived exosomes, by performing a Taqman-based miR expression microarray from exosomes isolated from the supernatant of FAPs derived by mdx mice treated for 15 days with TSA or control vehicle (CTR).

Notch1 = Notch1 transcripts in MuSCs isolated from treated mdx mice; format: in vivo; conditions: MuSCs isolated from mdx mice treated with TSA
Description: (§1) Animals were used at the specified age and treated for the indicated periods with daily intra peritoneal injections of Trichostatin A, TSA (0.6 mg/kg/day; #T8552, Sigma), dissolved in phospate-saline solution or in phospate-saline alone as vehicle control (CTR). Muscle injury was performed by intramuscular injection in Tibliais Anterior (TA) of Cardiotoxin—CTX− (10 μM, 10 mg/mL) (#L8102, Lotaxan Valence, France, http://www.latoxan.com), 3 days before mice sacrifice.
For RNA-sequencing sample preparation, MuSCs and FAPs were freshly isolated by FACS from 6 C57BI6 mdx male mice 8-weeks old treated or not with TSA for 15 days. RNA was collected using Trizol) reagent (#T9424, Sigma). About 100 ng/μL of total RNA was sent in duplicate to IGA (Istituto di Genomica Applicata, Udine) for RNA sequencing using Illumina TruSeq Stranded Total RNA kit Ribo-Zero GOLD on Illumina Hiseq2500 platform.
To investigate this hypothesis, we evaluated the effect of FAP-derived exosomes from HDACi-treated or control-treated mdx mice on MuSCs within single fibres isolated from WT mice. Freshly isolated single muscle fibres from tibialis anterior, extensor digitorum longus, gastrocnemius and soleus of C57BL6J mice were incubated with FAP-derived exosomes or whole conditioned media, and their effect on MuSCs was evaluated by monitoring the expression of Pax7, MyoD and DNA synthesis (EdU incorporation). […]

mdx muscles = experiment: Regeneration, fibrosis and inflammation in mdx tibialis anterior after exosome injection or systemic TSA; format: in vivo, mdx mice; conditions: 21 days; exosomes intramuscular every 7 days or TSA daily intra-peritoneal
Description: as §1
FAPs-derived exosomes at a final concentration of 10 μg in 20 μL of PBS1x (0.5 ug/μl) (#14190-1444, Gibco by life technologies) and its vehicle of control (20 μl PBS1x) were injected 3 times in left TA of young C57BL6/mdx mice: every 7 days for 21 days.
For Masson Trichrome staining to analyze fibrotic tissue, muscle cryo-sections were fixed for 20′ at 56° C. in Bouin's Solution (#HT10132, L Sigma) and then stained in Working Weigert's Iron Hematoxilin solution for 5 min (#HT1079, Sigma), washed in running tap water for 5 min and stained in Biebrich Scarlet-Acid Fucsin for 5 min (#HT151, Sigma). Sections were rinsed in de-ionized water and re-fixed in freshly made Phosphomolybdic/Phosphotungstic/dH2O (1:1:2) acid solution for 8 min (#HT153, #HT152, Sigma), and then they are stained in Aniline Blue solution for 5 min (#HT154, Sigma) and in acid acetic 1% for 2 min (#27221, Sigma). The slides were dehydratated in ethanol (#02860, Sigma) and xilene (#X1040, Sigma) and mounted with EUKITT (#03989, Sigma), then visualized using a Nikon Eclipse 90i: collagen fibers are stained in blue, the nuclei stained in black and the muscle tissue is stained in red. miRNA in situ hybridization was performed as described by Pena (2009) in formaldehyde and carbodiimide (EDC)-fixed TA cryo-sections (0.16M 90 min at RT,_#25952-53-8, Merck KGaA). After washes with 0.2% glycine (#G8898, Sigma) and TBS, cryo-sections were acetylated using 0.1 M triethanolamine and 0.25% acetic anhydride for 25 min at RT (respectively #90275, #A6404, Sigma). This steps are followed by a pre-hybridization using 2× of SSC, 25% formamide (#F9037, Sigma); 0.2% Triton (#X100, Sigma) 30 min at RT and by the over night hybridization at 4° C. with the has-miR206 probe (10 pmol, #18100-01, exiqon) dissolved in a solution of 50% formamide, 250 μg/ml tRNA (#R1753, Sigma), 200 μg/ml SSDNA (#D7656, Sigma), 10% dextran sulphate (#D8906, Sigma) and 2× SSC. The hybridization was followed by specific washes with SSC to eliminate non specific binding of probe (5× SSC 5 min at RT, 1× SSC 15 min at 45° C., 2% BSA in 0.2× SSC 15 min at 4° C., 2× SSC 5 min at RT, TNbuffer 10 min at RT and TNT buffer 15′ at RT) and by the incubation of cryo-section using anti-digoxigenin-ap fab fragments ( 1/100, #11093274910, Roche) dissolved in TNbuffer for 2 hours at RT. To reveal the miRNA probe specific binding cryo-sections, covered from light, were incubating over night at 4° C. with 0.375 mg/ml of NBT and 0.188 mg/ml BCIP dissolved in a solution of TMNbuffer (respectively #11383213001 and #11383221001, Roche).
For immunofluorescence analysis, cryo-sections and cells were fixed in 4% PFA for 10 min and permeabilized with 100% cold acetone (#32201, Sigma) for 6 min at −20° C. or 100% cold Methanol (#32213, Sigma) for 6 min at −20° or with 0.25% Triton for 15 min at RT. Muscle sections were blocked for 1 h with a solution containing 4% BSA (#A7030, Sigma) in PBS. […]

CC(/C=C/C(=O)NO)=C\[C@@H](C)C(=O)c1ccc(N(C)C)cc1 [TSA, Trichostatin A]
miRs in exosomes from FAPs [1]: several miRs up-regulated
Notch1 transcripts (Notch1): reduced
embryonic-MyHC-positive myofibers (eMyHC) (mdx muscles): increase
fibers calibre, cross sectional area (CSA) (mdx muscles): increase
fibrosis (mdx muscles): reduce
inflammation (MPO) (mdx muscles): significant reduction
muscle fiber area fraction (MFAF) (mdx muscles): increase
